Results taken from patent publication US20080299588A1, “Methods For Measuring Bone Formation” (The Curators of the University of Missouri A public …, priority 2007, published 2008).
“Also recorded” adds a separate entry of the source.

Key:
[1] = test system: procollagen C proteinase enhancer protein, 1,25-D3-MARRS, nascent polypeptide associated complex alpha chain; experiment: 2-D SDS-PAGE and mass spectrometry of cell layer EDTA extracts, fragmentation of mineralization related proteins; assay type: cell-based, Rat; settings: +BGP versus +BGP with 0.04 mM AEBSF, serum-depleted
Procedure: Two Step Extraction of Cell Layer—2-Step Method. During the final 24 hour mineralization period, cells were grown in BSA-free, serum-free media conditions to reduce the amount of BSA in fractions used for 2-dimensional gel electrophoresis. Media was removed from each flask, heated at 95° C. for 5 minutes, dialyzed against 5% acetic acid, and lyophilized to dryness. Cell layers were first extracted without mixing for 2 h at 4° C. in 0.05 M Tris-acetate buffer (pH 7.5) containing 0.15 M NaCl, 0.05 M EDTA and 0.02% sodium azide; extracts were then inactivated at 95° C. for 5 minutes, dialyzed against 5% HAc, and lyophilized to dryness. […]
Mass Spectrometric Analyses. Protein bands were detected by staining with Coomassie blue G or with Sypro Ruby dye according to the manufacturer's instructions (Bio-Rad, Inc.). […] The data were analyzed using Mascot (Matrix Science, LTD), to find protein matches in the MSDB—20050227.fasta database. […]
AEBSF is a general serine protease inhibitor and the inhibition of mineralization by AEBSF could very well be due to the blockage of cleavage events of other necessary proteins. […] There were no major differences detected between the two growth conditions for either the urea extract or the media fraction. However, the differences detected between the two EDTA extracts were visually dramatic (FIG. 9). […]

[2] = test system: primary mouse calvarial cultures; experiment: MTT assay in primary mouse calvarial cultures; assay type: cell-based; settings: 0.01 to 0.1 mM, scored on day 12
Procedure: Primary mouse calvaria were isolated from 3-5 day old mice and digested with trypsin/collagenase. Three sequential enzymatic digestions were pooled and spun down at 1500 rpm and the cells were resuspended in alpha-MEM containing 10% fetal bovine serum, 2 mM L-glutamine, 100 u/ml penicillin and 30 ug/ml gentamicin (Alpha-Growth Medium). Cells were plated directly at a density of 2-3×10^6 cells per T-75 cm2 flask and allowed to reach confluency (3-4 days). Confluent cultures were passaged by trypsinization and re-plating in 12- or 24-well culture dishes at a density of 20,000 cells per cm2. Cultures were subsequently re-fed at three-day intervals with Alpha-Growth Medium supplemented with 50 ug/ml ascorbic acid and 5 mM beta-glycerol phosphate. Beta-glycerol phosphate was omitted from some wells, which served as an unmineralized control. […] A second set was fixed on day 12 with 70% ethanol and processed for quantitative Alizarin red S staining as described for UMR cultures.
MTT Assays Culture wells were washed with Eagle's MEM supplemented with Earle's salts and then incubated with a solution of 0.5 mg/ml MTT (3-(4,5-dimethylthiazol-2-yl)-2,5-diphenyl-2Htetrazolium bromide) in Eagle's MEM for 1-2 h at 37° C. Excess MTT solution was removed, the cells disrupted by mixing briefly with dimethylsulfoxide, and free, reduced dye was read at 490 or 540 nm in a spectrophotometer.

UMR-106 cells [3] = experiment: MTT cell viability assay in UMR 106-01 cultures; assay type: cell-based, Rat
Procedure: Cell Culture. UMR 106-01 cells were maintained and cultured at 37° C. and 5% carbon dioxide. Cells were seeded at a density of 1.0×10^5 cells/cm^2 in Growth Medium (Eagle's MEM supplemented with Earle's salts, 1% non-essential amino acids, 10 mM, HEPES, pH 7.2, and 10% fetal bovine serum). After 24 hours (h), the medium was exchanged with Growth Medium containing 0.5% BSA. Sixty-four hours after plating, the culture medium was exchanged with Mineralization Media (Growth Medium containing either 0.1% BSA or 10% fetal bovine serum and 7 mM β-glycerol phosphate). Cultures were then incubated for an additional 24 hours, at the end of which (88 h), the cells were fixed in 70% ethanol and either subjected to MTT assay or extracted for protein. […] Alternatively, AEBSF was added at 44 h after plating; inhibitor was then removed and exchanged for Mineralization Media at 64 h and the amount of mineralization analyzed at 88 h.
MTT Assays Culture wells were washed with Eagle's MEM supplemented with Earle's salts and then incubated with a solution of 0.5 mg/ml MTT (3-(4,5-dimethylthiazol-2-yl)-2,5-diphenyl-2Htetrazolium bromide) in Eagle's MEM for 1-2 h at 37° C. Excess MTT solution was removed, the cells disrupted by mixing briefly with dimethylsulfoxide, and free, reduced dye was read at 490 or 540 nm in a spectrophotometer. […]

BAG-75 and BSP = experiment: Uptake and proteolytic cleavage of BAG-75 and BSP in mineralizing UMR cultures (SDS-PAGE, staining, immunoblotting); assay type: cell-based, Rat
Procedure: Two Step Extraction of Cell Layer—2-Step Method. During the final 24 hour mineralization period, cells were grown in BSA-free, serum-free media conditions to reduce the amount of BSA in fractions used for 2-dimensional gel electrophoresis. Media was removed from each flask, heated at 95° C. for 5 minutes, dialyzed against 5% acetic acid, and lyophilized to dryness. Cell layers were first extracted without mixing for 2 h at 4° C. in 0.05 M Tris-acetate buffer (pH 7.5) containing 0.15 M NaCl, 0.05 M EDTA and 0.02% sodium azide; extracts were then inactivated at 95° C. for 5 minutes, dialyzed against 5% HAc, and lyophilized to dryness. The residual cell layer was next dislodged by scrapping and then extracted overnight at 4° C. by slow mixing with 0.1 M Trisacetate buffer (pH 7.5) containing 8 M urea, 2% (w/v) CHAPS and 0.02% sodium azide. Urea extracts were then homogenized and clarified by ultracentrifugation at 30,000 rpm for 1 h at 4° C. in an SW 50.1 rotor prior to use in 2-dimensional gel electrophoresis.
Western Blotting—Chemiluminescence Detection. […]
The effect of AEBSF on the protein distribution within mineralizing cultures was analyzed using cells grown until 64 hours, at which time they were fed with one of four different media conditions. […]

UMR-106 cells [4] = experiment: Mineral deposition (hydroxyapatite) within BMF in UMR 106-01 cultures, Alizarin red S quantitation; assay type: cell-based, Rat
Procedure: Cell Culture. UMR 106-01 cells were maintained and cultured at 37° C. and 5% carbon dioxide. Cells were seeded at a density of 1.0×10^5 cells/cm^2 in Growth Medium (Eagle's MEM supplemented with Earle's salts, 1% non-essential amino acids, 10 mM, HEPES, pH 7.2, and 10% fetal bovine serum). After 24 hours (h), the medium was exchanged with Growth Medium containing 0.5% BSA. Sixty-four hours after plating, the culture medium was exchanged with Mineralization Media (Growth Medium containing either 0.1% BSA or 10% fetal bovine serum and 7 mM β-glycerol phosphate). Cultures were then incubated for an additional 24 hours, at the end of which (88 h), the cells were fixed in 70% ethanol and either subjected to MTT assay or extracted for protein. In some experiments, protease inhibitors, including serine protease inhibitor AEBSF (4-(2-aminoethyl)-benzenesulfonylfluoride HCl), were added to cultures at 64 h after plating in Mineralization Media. Alternatively, AEBSF was added at 44 h after plating; inhibitor was then removed and exchanged for Mineralization Media at 64 h and the amount of mineralization analyzed at 88 h.
Quantitation of Mineralization. […] Bound dye was quantitated by extraction for 2 h at 4° C. in cold 10 mM HCl in 70% ethanol. The initial extract was collected and combined with a second extract and then read at 520 nm in a spectrophotometer. A standard curve for Alizarin red S dye was constructed for each analysis and the amount of bound dye/culture well was determined. […] Combined extracts were read at 520 nm in a spectrophotometer and the amount of bound dye/culture well was determined based on a standard curve.
To investigate the nature of the protease activity responsible for BAG-75/BSP cleavage and the relationship of cleavage with mineralization, a variety of protease inhibitors (Table 1) were tested in the UMR model. Individual inhibitors were added to confluent cultures at 64 hours after plating and the amount of hydroxyapatite deposited within BMF was quantitated 24 hours later. […]

## Cl.NCCc1ccc(S(=O)(=O)F)cc1 [AEBSF, 4-(2-aminoethyl)-benzenesulfonylfluoride HCl]
[1]
  cleavage of three additional proteins in EDTA extract: inhibited the cleavage
[2]
  change in viable cell number (MTT): little change in viable cell number
UMR-106 cells [3]; rat, UMR 106-01 cells, pH 7.2
  concentration below which no loss of cell viability was noted (MTT): below 1 mM
UMR-106 cells [3]; serum-sufficient or serum-depleted conditions
  concentration above which toxic (MTT): above 0.4 mM
BAG-75 and BSP; 0.1 mM AEBSF with 7 mM β-glycerol phosphate, 64-88 hours, HCl
  uptake of BAG-75 and BSP (75 kDa glycophosphoprotein band) from media by the cell layer: blocked; also recorded: blocks uptake
BAG-75 and BSP; UMR cultures with β-glycerol phosphate, two stage extraction, immunoblot
  proteolytic cleavage of BAG-75 and BSP to 45-50 kDa fragments: blocks uptake and cleavage
UMR-106 cells [4]; UMR cultures, 64-88 h after plating
  concentration capable of completely blocking mineral nucleation (as low as): 0.04 mM
UMR-106 cells [4]; UMR system, added at 64 hours after plating, optimal recommended dosage
  effect on mineral nucleation / mineralization in BMF: blocked mineral nucleation
UMR-106 cells [4]; assuming baseline mineral level of 150-170 nmoles/well, FIG. 4A
  difference in effectiveness, mineralization period (64-88 h) versus proliferation/differentiation period (44-64 h after plating): 10 fold
